The results in this text go back to patent publication US20230278972A1, “SUBSTITUTED HALOALKYL SULFONANILIDE HERBICIDES” (FMC Corporation, priority 2020, published 2023).

Holding throughout (format): in vivo
The subject of assay [1] is horseweed (Erigeron canadensis). As to the kind of experiment: Test A1 postemergence, horseweed. As to conditions: Postemergence. A digest of the protocol: (§1)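 Herbicidal response was scored on plants treated either preemergence, by directed spray onto soil of a loam–sand blend after sowing, or postemergence on potted plants at the one- to two-leaf stage, 2–10 cm high. Test chemicals were carried in a non-phytotoxic solvent mix with surfactant.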

Assay [2] relates to blackgrass (Alopecurus myosuroides). Put plainly: Test A1 postemergence, blackgrass. As to conditions: Postemergence, 0 to 100 scale (0 no effect, 100 complete control). A digest of the protocol:
as §1

In assay [3] the test system is Foxtail, Giant (giant foxtail, Setaria faberi). Put plainly: Test A1 postemergence, Foxtail, Giant. The conditions noted are these: Postemergence. In short, it runs like this: as §1
For assay [4] the test system is unchanged. As to the kind of experiment: Test A1 preemergence, Foxtail, Giant. A digest of the protocol: (§2)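 Test compounds were formulated in a non-phytotoxic solvent mixture containing a surfactant. For preemergence, seeds sown in a loam soil–sand blend received a directed soil spray. For postemergence, potted plants in the same soil, 2 to 10 cm tall at the one- to two-leaf stage, were sprayed.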

The test system of assay [5] is Ryegrass, Italian (Italian ryegrass, Lolium multiflorum). Put plainly: Test A1 preemergence, Ryegrass, Italian. In short, it runs like this: as §2
The test system of assay [6] is Pigweed, Palmer (palmer amaranth, palmer pigweed, Amaranthus palmeri). Put plainly: Test A1 preemergence, Pigweed, Palmer. A digest of the protocol:
as §2

The test system of assay [7] is wheat (Triticum aestivum). Put plainly: Test A1 postemergence, wheat. The conditions noted are these: Postemergence. In short, it runs like this: as §1
Assay [8] concerns barnyardgrass (Echinochloa crus-galli). As to the kind of experiment: Test B1 flooded paddy test, barnyardgrass. As to conditions: 250 g ai/ha, Flood, applied to paddy water, 2-leaf stage, visually evaluated after 10 to 14 days. An excerpt:
(§3) A dash (-) response means no test result.

Assay [9] relates to corn (Zea mays). Put plainly: Test A1 preemergence, corn. A digest of the protocol: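 Plants grown in pots of loam/sand mix; preemergence = soil-directed spray on seeded pots, postemergence = spray at 1–2 leaves, height 2–10 cm; test chemicals formulated in non-phytotoxic solvent with surfactant.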
Assay [10] deals with rice (Oryza sativa). As to the kind of experiment: Test B1 flooded paddy test, rice. The conditions noted are these: 250 g ai/ha, Flood, applied to paddy water, 2-leaf stage, visually evaluated after 10 to 14 days.
From the text: as §3

Assay [11] concerns soybean (Glycine max). Put plainly: Test A1 preemergence, soybean. In short, it runs like this:
as §2

Setting [12] is: 31 g ai/ha, 0 to 100 scale (0 no effect, 100 complete control), 10 days.
The mark [13] stands for this setting: 31 g ai/ha, 0 to 100 scale (0 no effect, 100 complete control).
Setting [14] is: 125 g ai/ha, 0 to 100 scale, 0 no effect, 100 complete control.

Regarding `Cc1cc(C)c(N(COC(=O)OC(C)(C)C)S(=O)(=O)C(F)(F)F)cc1C1=NOC2CCCC12` (centres unmarked) [Compound 316], the “Plant response rating, Horseweed” value is given as 30 in assay [1] (setting [12]) and 40 in assay [1] (125 g ai/ha, 0 to 100 scale). The “Plant response rating, Blackgrass” value in assay [2] (31 g ai/ha, 10 days) came out at 0; in assay [2] (125 g ai/ha) it was 0. For the same compound, the “Plant response rating, Foxtail, Giant” value in assay [3] (setting [12]) worked out at 0; in assay [3] (125 g ai/ha, 0 to 100 scale) it was 0; in [4] (setting [13]), 0; in assay [4] (setting [14]), 30. The “Plant response rating, Ryegrass, Italian” value in [5] (setting [13]) was 30; in assay [5] (setting [14]) it was 50. The entries for the “Plant response rating, Pigweed, Palmer” value in assay [6] (setting [13]) and in [6] (setting [14]) were 40 and 50, respectively. The “Plant response rating, Wheat” value was determined as 10 in [7] (setting [12]) and 40 in assay [7] (125 g ai/ha, 0 to 100 scale). Further, the “Plant response rating, Barnyardgrass (0 to 100 scale, 0 is no effect, 100 is complete control)” value in assay [8] was found to be 95. The “Plant response rating, Corn” value in [9] (setting [13]) and in assay [9] (setting [14]) was 0 throughout. The “Plant response rating, Rice (0 to 100 scale, 0 is no effect, 100 is complete control)” value in assay [10] was 0. The “Plant response rating, Soybean” value in assay [11] (setting [13]) and in assay [11] (setting [14]) was 0 each time.

In the case of `Cc1cc(C)c(N(COC(=O)N(C)C)S(=O)(=O)C(F)(F)F)cc1C1=NOC2CCCC12` (centres unmarked) [Compound 317], the “Plant response rating, Horseweed” value amounted to 0 in assay [1] (setting [12]) and 0 in [1] (125 g ai/ha, 0 to 100 scale). The “Plant response rating, Blackgrass” value in [2] (31 g ai/ha, 10 days) was found to be 0; in [2] (125 g ai/ha) it was 0. The “Plant response rating, Foxtail, Giant” value in assay [3] (setting [12]) stood at 0; in [3] (125 g ai/ha, 0 to 100 scale), 0; in assay [4] (setting [13]), 0; in [4] (setting [14]), 0. In addition, the “Plant response rating, Ryegrass, Italian” value in [5] (setting [13]) and in [5] (setting [14]) was 0 in each case. Also, the “Plant response rating, Pigweed, Palmer” value in assay [6] (setting [13]) and in [6] (setting [14]) was 0 throughout. Further, the “Plant response rating, Wheat” value is given as 0 in [7] (setting [12]) and 0 in [7] (125 g ai/ha, 0 to 100 scale). Moreover, in assay [8], the “Plant response rating, Barnyardgrass (0 to 100 scale, 0 is no effect, 100 is complete control)” value is 0. For the same compound, the “Plant response rating, Corn” value in assay [9] (setting [13]) and in assay [9] (setting [14]) was 0 throughout. The “Plant response rating, Rice (0 to 100 scale, 0 is no effect, 100 is complete control)” value in [10] turned out to be 0. Further, the “Plant response rating, Soybean” value in assay [11] (setting [13]) and in assay [11] (setting [14]) was 0 throughout.

With `CCOC1CC(c2cc(NS(=O)(=O)C(F)(F)F)c(C)cc2C)=NO1` (centres unmarked) [Compound 318], the “Plant response rating, Horseweed” value in assay [1] (setting [12]) was determined as 20; in assay [1] (125 g ai/ha, 0 to 100 scale), 50. Besides, the “Plant response rating, Blackgrass” value was 0 in assay [2] (31 g ai/ha, 10 days) and 50 in assay [2] (125 g ai/ha). In addition, the “Plant response rating, Foxtail, Giant” value in assay [3] (setting [12]) stood at 0; in [3] (125 g ai/ha, 0 to 100 scale), 80; in assay [4] (setting [13]), 30; in [4] (setting [14]), 90. Further, the results for the “Plant response rating, Ryegrass, Italian” value in assay [5] (setting [13]) and in assay [5] (setting [14]) were 50 and 90, respectively. Moreover, the entries for the “Plant response rating, Pigweed, Palmer” value in [6] (setting [13]) and in assay [6] (setting [14]) were 80 and 100, respectively. Moreover, the “Plant response rating, Wheat” value is on record as 50 in assay [7] (setting [12]) and 70 in assay [7] (125 g ai/ha, 0 to 100 scale). In addition, the “Plant response rating, Barnyardgrass (0 to 100 scale, 0 is no effect, 100 is complete control)” value in assay [8] stood at 95. In addition, the “Plant response rating, Corn” value was found to be 0 in assay [9] (setting [13]) and 70 in [9] (setting [14]). In [10], the “Plant response rating, Rice (0 to 100 scale, 0 is no effect, 100 is complete control)” value came out at 0. Also, the “Plant response rating, Soybean” value in assay [11] (setting [13]) was 0; in assay [11] (setting [14]) it was 30.

Take `Cc1c(C(=O)N(C)C)cc(NS(=O)(=O)C(F)(F)F)c(Cl)c1F` [Compound 320]: the “Plant response rating, Horseweed” value in assay [1] (setting [12]) is 50; in [1] (125 g ai/ha, 0 to 100 scale), 70. Further, the “Plant response rating, Blackgrass” value was 40 in assay [2] (31 g ai/ha, 10 days) and 0 in assay [2] (125 g ai/ha). Also, the “Plant response rating, Foxtail, Giant” value in assay [3] (setting [12]) is 0; in [3] (125 g ai/ha, 0 to 100 scale), 40; in assay [4] (setting [13]), 10; in assay [4] (setting [14]), 100. In addition, the “Plant response rating, Ryegrass, Italian” value in assay [5] (setting [13]) and in [5] (setting [14]) was 90 in each case. Further, the results for the “Plant response rating, Pigweed, Palmer” value in assay [6] (setting [13]) and in assay [6] (setting [14]) were 50 and 100, respectively. Also, the “Plant response rating, Wheat” value in assay [7] (setting [12]) is on record as 0; in assay [7] (125 g ai/ha, 0 to 100 scale) it was 30. Moreover, in assay [8], the “Plant response rating, Barnyardgrass (0 to 100 scale, 0 is no effect, 100 is complete control)” value turned out to be 0. Besides, the “Plant response rating, Corn” value in assay [9] (setting [13]) was determined as 0; in assay [9] (setting [14]), 30. Further, in assay [10], the “Plant response rating, Rice (0 to 100 scale, 0 is no effect, 100 is complete control)” value turned out to be 0. In addition, the “Plant response rating, Soybean” value in [11] (setting [13]) is 20; in assay [11] (setting [14]) it was 40.
